Results reported in US10238612B2, “Transdermal administration of tamsulosin” (Corium International, Inc., priority 2009, dated 2019).

Test: Solubility of tamsulosin in DMSO and in mixtures of DMSO and water
Type: physicochemical
Text: For example, dimethylsulfoxide (DMSO) may potentially be used. The table below gives some data on the solubility of tamsulosin in DMSO and in mixtures of DMSO and water: […]

CCOc1ccccc1OCCN[C@H](C)Cc1ccc(OC)c(S(N)(=O)=O)c1 [Tamsulosin, 5-[2-[[2-(2-ethoxyphenoxy)ethyl]amino]propyl]-2-methoxy-benzenesulfonamide]
Solubility of Tamsulosin (Water in DMSO 0 w/w %): 230 mg/g | Solubility of Tamsulosin (w/w %) (Water in DMSO 0 w/w %): 23.0 w/w % | Solubility of Tamsulosin (Water in DMSO 8.85 w/w %): 72.9 mg/g | Solubility of Tamsulosin (w/w %) (Water in DMSO 8.85 w/w %): 7.29 w/w % | Solubility of Tamsulosin (Water in DMSO 16.85 w/w %): 30.2 mg/g | Solubility of Tamsulosin (w/w %) (Water in DMSO 16.85 w/w %): 3.02 w/w % | Solubility of Tamsulosin (w/w %) (Water in DMSO 29.19 w/w %): 0.52 w/w %
